In patent publication US11214803B2, “Modulators of YAP1 expression” (Ionis Pharmaceuticals, Inc., priority 2019, dated 2022):
Strand notation (5' to 3'): a small letter for the sugar, then the base; units joined by * are phosphorothioate-linked, units joined directly phosphodiester-linked; [ ] holds rarer units or linkages, { } end groups; capitals alone tell only the bases. e = 2'-O-(2-methoxyethyl) (MOE); k = constrained ethyl (cEt); [5mC] = 5-methylcytosine; d = 2'-deoxy (DNA); m = 2'-O-methyl

Test system: Yap1 mRNA
Experiment: Antisense inhibition of human Yap1 in SNU-449 cells by modified oligonucleotides, single dose (Example 5, RTS36584)
Assay type: cell-based
In short: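 Values are % of untreated control: Yap1 mRNA by quantitative RT-PCR (RTS36584), normalized to RIBOGREEN total RNA. Oligonucleotides were dosed at 2,000 nM, free uptake, in SNU-449 cells, with roughly 48 h exposure before RNA isolation.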

[1] = Table 50, Yap1 mRNA remaining as percent of untreated control (UT), SNU-449 cells, single dose
[2] = Table 44 experiment, SNU-449 cells, 10,000 cells per well, free uptake, 2,000 nM, approximately 48 hours, RTS36584, Yap1 mRNA normalized to RIBOGREEN, relative to untreated control cells
[3] = Table 51, Yap1 mRNA remaining as percent of untreated control (UT), SNU-449 cells, single dose
[4] = Table 48, Yap1 mRNA level relative to untreated control, modified oligonucleotides targeting SEQ ID NO.: 1 and 2
[5] = Table 42 (separate experiment), SNU-449 cells, 10,000 cells per well, free uptake, 2,000 nM modified oligonucleotide, approximately 48 hours, RTS36584, normalized to RIBOGREEN, Yap1 mRNA relative to untreated control cells
[6] = Table 52, Yap1 mRNA, modified oligonucleotides targeting SEQ ID NO: 1 and 2
[7] = Table 46, Yap1 mRNA as percent of untreated control, SNU-449 cells, single dose
[8] = Table 39, SNU-449 cells, 10,000 cells per well, free uptake, 2,000 nM oligonucleotide, approx. 48 hours, RTS36584, normalized to RIBOGREEN, Yap1 mRNA relative to untreated control
[9] = Table 41, SNU-449 cells, 10,000 cells per well, free uptake, 2,000 nM modified oligonucleotide, approximately 48 hours, RTS36584, normalized to RIBOGREEN, Yap1 mRNA relative to untreated control cells
[10] = Table 45, Yap1 mRNA as percent of untreated control, SNU-449 cells, single dose
[11] = Table 49, Yap1 mRNA level relative to untreated control, modified oligonucleotides targeting SEQ ID NO.: 1 and 2

“1198585 (antisense kT*kT*kT*dA*dG*dG*dA*dT*dG*d[5mC]*dA*dT*kG*kG*kT*eT) [Compound 1198585]” was tested, and the “YAP1 (% UT)” value [1] was 22 % UT.

“1198472 (antisense kT*kA*dT*dA*dT*dT*dA*dG*dA*dG*dT*eA*kT*eG*kT*eG) [Compound 1198472]” was tested, and the “YAP1 (% UTC)” value (Table 43 experiment, SNU-449 cells, 10,000 cells per well, free uptake, 2,000 nM, approximately 48 hours, RTS36584, Yap1 mRNA normalized to RIBOGREEN, relative to untreated control cells) was 60 % UTC.

For “1198564 (antisense kA*kA*k[5mC]*dA*d[5mC]*dT*dG*dA*dG*dG*dT*dA*kT*kA*kA*e[5mC]) [Compound 1198564]”, the “YAP1 (% UT)” value [1] was 44 % UT.

With “1198905 (kA*kT*dA*dT*dT*dA*dG*dA*dG*dT*dA*kT*dG*kT*dG*kG; antisense) [Compound 1198905]” the “YAP1 (% UTC)” value [2] was 5 % UTC.

In the case of “1197301 (AGATUTAGGATGCATG; chemistry not fully specified) [Compound 1197301]”, the “YAP1 (% UT)” value [3] is reported as 71 % UT.

In the case of “1198291 (kA*kT*kG*dG*dA*dA*dA*dT*dT*dG*dT*d[5mC]*kT*e[5mC]*kA*eT; antisense) [Compound 1198291]”, the “YAP1 (% UT)” value [4] is reported as 58 % UT.

“1198204 (kT*kG*dG*dA*dA*dA*dT*dT*dG*dT*d[5mC]*eT*e[5mC]*eA*kT*kG; antisense) [Compound 1198204]” was tested, and the “YAP1 (% UTC)” value [5] was 31 % UTC.

With “1200830 (kT*kT*kA*dG*dG*mA*dT*dG*d[5mC]*dA*dT*dG*dG*kT*kT*kT; antisense) [Compound 1200830]” the “YAP1 (% UT)” value [6] was 50 % UT.

With “1197217 (antisense kT*kT*kA*dA*dA*dG*dT*dG*dT*dA*dT*dG*dT*k[5mC]*kA*kG) [Compound 1197217]” the “YAP1 (% UT)” value [4] was 8 % UT.

For “1198884 (kT*kA*dA*dG*dT*dA*dA*dG*dG*dT*dT*kT*e[5mC]*k[5mC]*e[5mC]*kA; antisense) [Compound 1198884]”, the “YAP1 (% UT)” value [7] was 28 % UT.

With “1198408 (kG*dT*dG*d[5mC]*dT*dT*dT*dG*dG*dA*dA*kG*eA*kT*e[5mC]*kT; antisense) [Compound 1198408]” the “YAP1 (% UTC)” value [8] was 41 % UTC.

“1198376 (kT*dG*dG*dA*dA*dA*dT*dT*dG*dT*d[5mC]*kT*e[5mC]*kA*eT*kG; antisense) [Compound 1198376]” was tested, and the “YAP1 (% UTC)” value [8] was 36 % UTC.

With “1198643 (kA*kT*dA*dT*dT*dA*dG*dA*dG*dT*dA*dT*kG*eT*kG*eG; antisense) [Compound 1198643]” the “YAP1 (% UTC)” value [9] was 25 % UTC.

With “1198455 (kT*dT*dA*dG*dA*d[5mC]*dT*dA*dA*dG*dT*kA*eA*kG*eG*kT) [Compound 1198455]” the “YAP1 (% UTC)” value [8] was 42 % UTC.

With “1200840 (k[5mC]*kT*kT*dA*dT*mA*dT*dG*dG*dT*dT*dT*dT*kG*kT*kG; antisense) [Compound 1200840]” the “YAP1 (% UT)” value [6] was 48 % UT.

With “1198333 (kA*kT*kT*d[5mC]*dA*dG*dA*dT*dT*dT*dA*dG*kG*eA*kT*eG; antisense) [Compound 1198333]” the “YAP1 (% UT)” value [4] was 77 % UT.

In the case of “1198563 (antisense kG*kA*kG*dG*dT*dA*dT*dA*dA*d[5mC]*dT*dG*kG*kG*k[5mC]*eA) [Compound 1198563]”, the “YAP1 (% UT)” value [1] is reported as 53 % UT.

“1009327 (kA*kT*kA*dT*dT*dA*dG*dA*dG*dT*dA*dT*dG*kT*kG*kG; antisense) [Compound 1009327]” was tested, and the “YAP1 (% UT)” value (Yap1 mRNA, percent of untreated control, modified oligonucleotides targeting SEQ ID NO: 1 and 2, Table 47) was 27 % UT.

With “1198775 (k[5mC]*eA*kA*d[5mC]*dT*d[5mC]*dT*dT*dA*dT*dA*dT*eG*eG*kT*kT; antisense) [Compound 1198775]” the “YAP1 (% UTC)” value [9] was 113 % UTC.

With “1198436 (kT*dA*dT*dG*dT*dA*dA*dT*dA*dT*dT*kG*e[5mC]*kA*eA*kT; antisense) [Compound 1198436]” the “YAP1 (% UTC)” value [8] was 69 % UTC.

For “1198925 (k[5mC]*kT*dT*dT*dG*dG*dA*dA*dG*dA*dT*k[5mC]*dT*kG*dA*kA; antisense) [Compound 1198925]”, the “YAP1 (% UTC)” value [10] was 52 % UTC.

In the case of “1197265 (kT*kA*kA*dT*mA*dT*dT*dG*d[5mC]*dA*dA*dT*d[5mC]*kT*kG*kT) [Compound 1197265]”, the “YAP1 (% UT)” value [3] is reported as 103 % UT.

With “1198955 (kA*kT*dG*dT*dA*dA*dT*dA*dT*dT*dG*k[5mC]*dA*kA*dT*k[5mC]; antisense) [Compound 1198955]” the “YAP1 (% UTC)” value [10] was 92 % UTC.

In the case of “1198690 (antisense kT*kA*dA*dT*dA*dT*dT*dG*d[5mC]*dA*dA*dT*k[5mC]*eT*kG*eT) [Compound 1198690]”, the “YAP1 (% UTC)” value [9] is reported as 64 % UTC.

In the case of “1198553 (antisense kT*kA*kG*dA*dG*dT*dA*dT*dG*dT*dG*dG*k[5mC]*kA*kA*eT) [Compound 1198553]”, the “YAP1 (% UT)” value [11] is reported as 13 % UT.

“1095566 (antisense CTGAGGTATAACTGGG; chemistry not fully specified) [Compound 1095566]” was tested, and the “YAP1 (% UT)” value [11] was 47 % UT.

With “1198347 (kG*kT*kA*dA*dT*dA*dT*dT*dG*d[5mC]*dA*dA*kT*e[5mC]*kT*eG; antisense) [Compound 1198347]” the “YAP1 (% UT)” value [4] was 14 % UT.

In the case of “1197261 (kT*k[5mC]*kT*dT*mA*dT*dA*dT*dG*dG*dT*dT*dT*kT*kG*kT) [Compound 1197261]”, the “YAP1 (% UT)” value [3] is reported as 91 % UT.

“1197214 (antisense kA*kG*kT*dG*dT*dA*dT*dG*dT*d[5mC]*dA*dG*dA*kA*kG*kA) [Compound 1197214]” was tested, and the “YAP1 (% UT)” value [4] was 5 % UT.

“1198612 (antisense kA*kA*kG*dT*dG*dT*dA*dT*dG*dT*d[5mC]*dA*kG*kA*kA*eG) [Compound 1198612]” was tested, and the “YAP1 (% UT)” value [1] was 5 % UT.

“1076439 (k[5mC]*kT*kT*dA*dT*dA*dT*dG*dG*dT*dT*dT*dT*kG*kT*kG) [Compound 1076439]” was tested, and the “YAP1 (% UT)” value [4] was 31 % UT.

With “1198718 (kG*eA*kA*dA*dT*dT*dG*dT*d[5mC]*dT*d[5mC]*dA*eT*eG*k[5mC]*k[5mC]; antisense) [Compound 1198718]” the “YAP1 (% UTC)” value (Table 40 (separate experiment), SNU-449 cells, 10,000 cells per well, free uptake, 2,000 nM oligonucleotide, approx. 48 hours, RTS36584, normalized to RIBOGREEN, Yap1 mRNA relative to untreated control) was 9 % UTC.

“1197292 (kA*k[5mC]*kT*dT*mU*dT*dA*d[5mC]*dA*dT*dT*dA*dG*kG*kA*kA; antisense) [Compound 1197292]” was tested, and the “YAP1 (% UT)” value [1] was 84 % UT.

In the case of “1197280 (kT*kG*kT*d[5mC]*mU*d[5mC]*dA*dT*dG*d[5mC]*d[5mC]*dT*dT*kA*kT*kA; antisense) [Compound 1197280]”, the “YAP1 (% UT)” value [1] is reported as 53 % UT.

For “1197229 (antisense kG*kG*kA*dA*mA*dT*dT*dG*dT*d[5mC]*dT*d[5mC]*dA*kT*kG*k[5mC]) [Compound 1197229]”, the “YAP1 (% UT)” value [1] was 21 % UT.

“1198696 (antisense kT*kG*dT*dA*dT*dG*dT*d[5mC]*dA*dG*dA*dA*kG*eA*kG*eT) [Compound 1198696]” was tested, and the “YAP1 (% UTC)” value [5] was 12 % UTC.

With “1198402 (kG*dG*dA*dA*dG*dA*dT*d[5mC]*dT*dG*dA*kA*eA*k[5mC]*eT*k[5mC]; antisense) [Compound 1198402]” the “YAP1 (% UTC)” value [8] was 32 % UTC.

In the case of “1198709 (k[5mC]*kT*dA*dA*dG*dT*dA*dA*dG*dG*dT*dT*kT*e[5mC]*k[5mC]*e[5mC]; antisense) [Compound 1198709]”, the “YAP1 (% UTC)” value [5] is reported as 29 % UTC.

For “1198379 (kA*dG*dT*dA*dT*dG*dT*dG*dG*d[5mC]*dA*kA*eT*kA*eA*kT) [Compound 1198379]”, the “YAP1 (% UTC)” value [8] was 45 % UTC.

In the case of “1198537 (k[5mC]*kT*dA*dA*dG*dT*dA*dA*dG*dG*dT*eT*kT*e[5mC]*k[5mC]*e[5mC]; antisense) [Compound 1198537]”, the “YAP1 (% UTC)” value [2] is reported as 24 % UTC.

For “1198525 (kA*kG*dT*dG*dT*dA*dT*dG*dT*d[5mC]*dA*eG*kA*eA*kG*eA; antisense) [Compound 1198525]”, the “YAP1 (% UTC)” value [2] was 2 % UTC.

In the case of “1198389 (kG*dG*dT*dA*dT*dA*dA*d[5mC]*dT*dG*dG*kG*e[5mC]*kA*eA*kA; antisense) [Compound 1198389]”, the “YAP1 (% UTC)” value [8] is reported as 28 % UTC.

With “1198684 (antisense kA*kA*d[5mC]*dT*d[5mC]*dT*dT*dA*dT*dA*dT*dG*kG*eT*kT*eT) [Compound 1198684]” the “YAP1 (% UTC)” value [5] was 75 % UTC.

“1198635 (kA*kT*dG*dG*dA*dA*dA*dT*dT*dG*dT*d[5mC]*kT*e[5mC]*kA*eT; antisense) [Compound 1198635]” was tested, and the “YAP1 (% UTC)” value [9] was 57 % UTC.

“1198870 (kT*kA*dT*dG*dT*dA*dA*dT*dA*dT*dT*kG*e[5mC]*kA*eA*kT; antisense) [Compound 1198870]” was tested, and the “YAP1 (% UT)” value [7] was 86 % UT.

In the case of “1198855 (kT*kT*dA*dT*dA*dT*dG*dG*dT*dT*dT*kT*eG*kT*eG*kT; antisense) [Compound 1198855]”, the “YAP1 (% UT)” value [7] is reported as 30 % UT.
